ChEMBL document CHEMBL5113521, “Discovery of a Novel Oral Proteasome Inhibitor to Block NLRP3 Inflammasome Activation with Anti-inflammation Activity” (J Med Chem, 2022)

Tests used:
[1] = biological target: T1, Proteasome Macropain subunit MB1 (Homo sapiens, UniProt P28074); assay: Inhibition of 20S proteasome beta5 subunit (unknown origin) using Suc-LLVY-AMC as flurogenic substrate measured after 1 hr by fluorescence based analysis; conditions: read-out: pIC50 (converted)
T1 sequence (P28074 whole entry): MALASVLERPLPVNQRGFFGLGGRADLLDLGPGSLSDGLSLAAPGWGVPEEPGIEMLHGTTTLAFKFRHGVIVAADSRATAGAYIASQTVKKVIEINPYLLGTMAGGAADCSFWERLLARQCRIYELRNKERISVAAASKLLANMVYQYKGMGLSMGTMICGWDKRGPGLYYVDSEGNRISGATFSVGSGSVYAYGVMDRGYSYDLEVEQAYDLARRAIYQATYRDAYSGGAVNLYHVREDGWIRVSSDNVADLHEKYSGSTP

[2] = Cytotoxicity against HEK293 cells incubated for 24 hrs; assay type: toxicity, cell-based; conditions: human
HEK293 = assay: Cytotoxicity against HEK293 cells at less than 20 uM incubated for 24 hrs; assay type: toxicity, cell-based; conditions: human, hek293, 24 h
[3] = biological target: NACHT, LRR and PYD domains-containing protein 3 (Mus musculus) (UniProt Q8R4B8); assay: Inhibition of NLRP3 inflammasome activation in LPS-primed mouse J774.A1 cells assessed as reduction in IL-1beta secretion at 1 uM relative to control; assay type: cell-based
Sequence of NACHT, LRR and PYD domains-containing protein 3 (Mus musculus) (Q8R4B8 whole entry, the tested form may be a part): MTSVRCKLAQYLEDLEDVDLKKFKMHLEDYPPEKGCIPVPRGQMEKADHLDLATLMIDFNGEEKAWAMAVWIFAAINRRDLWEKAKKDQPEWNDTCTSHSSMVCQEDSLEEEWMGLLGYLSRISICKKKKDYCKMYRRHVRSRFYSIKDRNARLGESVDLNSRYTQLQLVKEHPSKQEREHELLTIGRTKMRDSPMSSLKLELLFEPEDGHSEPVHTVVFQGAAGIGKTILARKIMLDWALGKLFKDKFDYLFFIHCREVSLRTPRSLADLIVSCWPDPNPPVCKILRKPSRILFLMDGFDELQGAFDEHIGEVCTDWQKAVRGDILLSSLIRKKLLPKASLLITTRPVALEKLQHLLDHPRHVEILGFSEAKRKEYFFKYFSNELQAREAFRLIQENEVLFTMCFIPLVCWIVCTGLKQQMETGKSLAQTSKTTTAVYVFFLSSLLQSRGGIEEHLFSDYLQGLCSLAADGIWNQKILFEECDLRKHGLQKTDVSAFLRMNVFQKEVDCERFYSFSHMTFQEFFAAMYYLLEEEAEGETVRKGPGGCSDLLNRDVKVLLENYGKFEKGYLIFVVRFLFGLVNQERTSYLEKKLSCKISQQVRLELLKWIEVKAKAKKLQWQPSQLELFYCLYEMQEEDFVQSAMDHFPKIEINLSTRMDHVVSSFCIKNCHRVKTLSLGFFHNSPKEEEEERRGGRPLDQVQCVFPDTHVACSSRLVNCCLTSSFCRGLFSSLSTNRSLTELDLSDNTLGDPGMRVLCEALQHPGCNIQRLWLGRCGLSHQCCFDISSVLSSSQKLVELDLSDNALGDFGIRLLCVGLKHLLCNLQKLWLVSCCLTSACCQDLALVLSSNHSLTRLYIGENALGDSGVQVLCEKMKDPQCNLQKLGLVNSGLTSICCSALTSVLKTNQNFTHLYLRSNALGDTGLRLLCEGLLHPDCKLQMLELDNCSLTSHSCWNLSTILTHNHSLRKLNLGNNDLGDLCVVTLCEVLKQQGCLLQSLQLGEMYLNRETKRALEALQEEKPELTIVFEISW

| Compound | IC50 [1] | inhibition [3] | IC50 at 24 h [2] | Activity (HEK293) |
| --- | --- | --- | --- | --- |
| Cc1cncc(C(=O)N[C@@H](Cc2ccccc2)C(=O)N[C@@H](CC(C)C)B(O)O)n1 | 32.4 nM | – | – | – |
| CC(C)C[C@H](NC(=O)[C@H](Cc1ccccc1)NC(=O)c1cc(Cl)ccc1Cl)C(=O)O | 50.1 nM | – | – | – |
| O=C(O)C[C@@H]1CC[C@H](NC(=O)Cc2cccs2)B(O)O1 | – | 7.8% | – | – |
| CC(C)C[C@H](NC(=O)[C@H](Cc1ccccc1)NC(=O)c1c(Cl)cccc1Cl)B(O)O | 3.02 nM | – | < 79.4 nM | Non-Toxic |
| CC(C)C[C@H](NC(=O)[C@H](Cc1ccccc1)NC(=O)c1cccc(Cl)c1Cl)B(O)O | 1.2 nM | – | < 79.4 nM | Non-Toxic |
| CC(C)C[C@H](NC(=O)[C@H](Cc1ccccc1)NC(=O)c1cnccn1)C(=O)O | 50.1 nM | – | – | – |
| CC(C)C[C@H](NC(=O)[C@H](Cc1ccccc1)NC(=O)c1nc(Cl)ccc1Cl)B(O)O | 4.27 nM | – | < 79.4 nM | Non-Toxic |
| CC(C)C[C@H](NC(=O)[C@H](Cc1ccccc1)NC(=O)c1cccc(F)c1F)B(O)O | 1.12 nM | – | < 79.4 nM | Non-Toxic |
| CC(C)C[C@H](NC(=O)[C@H](Cc1ccccc1)NC(=O)c1cnc2ccccc2n1)B(O)O | 13.2 nM | – | – | – |
| CC(C)C[C@H](NC(=O)[C@H](Cc1ccccc1)NC(=O)c1ccc(F)cc1F)B(O)O | 4.79 nM | – | – | – |
| CC(C)C[C@H](NC(=O)[C@H](Cc1ccccc1)NC(=O)c1cnccn1)B(O)O [BORTEZOMIB] | – | – | < 79.4 nM | Non-Toxic |
| CC(C)C[C@H](NC(=O)[C@H](Cc1ccccc1)NC(=O)c1cc(F)ccc1F)B(O)O | 6.03 nM | – | – | – |
| CC(C)C[C@H](NC(=O)[C@H](Cc1ccccc1)NS(=O)(=O)c1cc(Cl)ccc1Cl)B(O)O | 19.5 nM | – | – | – |
| CC(C)C[C@H](NC(=O)[C@H](Cc1ccccc1)NC(=O)c1ccccn1)B(O)O | 6.76 nM | – | < 79.4 nM | Non-Toxic |
| COc1ccc(Cl)cc1C(=O)N[C@@H](Cc1ccccc1)C(=O)N[C@@H](CC(C)C)B(O)O | 8.32 nM | – | – | – |
| COc1ccc(F)cc1C(=O)N[C@@H](Cc1ccccc1)C(=O)N[C@@H](CC(C)C)B(O)O | 4.47 nM | – | – | – |

Further lines, with some results ahead:

| IC50 [1] | inhibition [3] | Compound | IC50 at 24 h [2] | Activity (HEK293) |
| --- | --- | --- | --- | --- |
| 0.708 nM | – | CC(C)C[C@H](NC(=O)[C@@H](NC(=O)c1cc(Cl)ccc1Cl)C(C)C)B(O)O | – | – |
| 6.31 nM | – | CC(C)C[C@H](NC(=O)[C@H](Cc1ccccc1)NC(=O)c1cc(Cl)ccc1Cl)B(O)O | – | – |
| 1 nM | – | CC(C)C[C@H](NC(=O)[C@H](Cc1ccc(O)cc1)NC(=O)c1cc(Cl)ccc1Cl)B(O)O | < 79.4 nM | Non-Toxic |
| – | 77% | CC(C)C[C@H](NC(=O)CNC(=O)c1cc(Cl)ccc1Cl)B(O)O | – | – |
| 12 nM | – | CC(C)C[C@H](NC(=O)[C@H](Cc1ccc2ccccc2c1)NC(=O)c1cc(Cl)ccc1Cl)B(O)O | – | – |
| 4.07 nM | – | CC(C)C[C@H](NC(=O)[C@H](CC(C)C)NC(=O)c1cc(Cl)ccc1Cl)B(O)O | – | – |
| 3.02 nM | – | CC(C)C[C@H](NC(=O)[C@H](Cc1ccccc1)NC(=O)c1cc(Cl)ccc1F)B(O)O | – | – |
| 3.47 nM | – | CC(C)C[C@H](NC(=O)[C@H](Cc1ccccc1)NC(=O)c1ccc(Cl)cc1Cl)B(O)O | – | – |
| > 50.1 nM | – | CC(C)C[C@H](NC(=O)c1ccc(CNC(=O)c2cc(Cl)ccc2Cl)cc1)B(O)O | – | – |
| > 50.1 nM | – | CC(C)C[C@H](NC(=O)CN(C)C(=O)c1cc(Cl)ccc1Cl)B(O)O | – | – |
| 7.08 nM | – | CC(C)C[C@H](NC(=O)[C@@H](NC(=O)c1cc(Cl)ccc1Cl)c1ccccc1)B(O)O | – | – |
| > 50.1 nM | – | CC(C)C[C@H](NC(=O)c1cc(Cl)ccc1Cl)B(O)O | – | – |
| 5.13 nM | – | CC(C)C[C@H](NC(=O)[C@H](CO)NC(=O)c1cc(Cl)ccc1Cl)B(O)O | – | – |
| 3.24 nM | – | CC[C@@H](C)[C@H](NC(=O)c1cc(Cl)ccc1Cl)C(=O)N[C@@H](CC(C)C)B(O)O | – | – |
